Values of other authors, collected in US20080085892A1, “Liquid dosage form of acetaminophen” (priority 2006, published 2008).

solubility in water: about 5 % wt. | solubility in water (in words): slightly soluble
Structure (SMILES): COc1ccccc1OCC(O)CO (centres unmarked) [Guaifenesin, 3-(2-methoxyphenoxy)-1,2-propanediol]
